Measured values as given in US20260092179A1, “GENETICALLY MODIFIED HOST CELLS PRODUCING VIOLACEIN, ANALOGUES, AND DERIVATIVES THEREOF” (OCTARINE BIO APS, priority 2022, published 2026).

Columns and labels:
[1] = Alkaline pH stability of dyed fabrics (colour fastness, ΔE); assay type: physicochemical; conditions: pH 8 with NaOH
Procedure: (§1) In order to assess the stability and colour fastness of violacein and violacein derivatives dyed onto fabrics, dyed fabrics were subjected to a number of conditions. Fabrics were dyed according to Example 18 and colour coordinates and colour change before and after exposure to a given condition were determined as described in Example 18. To measure temperature stability, fabrics were incubated in an oven set to 80° c. for 4 h. To measure stability under acid and alkaline conditions, fabrics were fully submerged in water solutions set to pH 8 with NaOH and pH 5 with HCl and incubated at room temperature for 30 minutes. Fabrics were then incubated at 37° c. for 4 h. To measure stability during laundering, fabrics were washed at 30° c. under the “mix” setting of a Siemens IQ300 washing machine, then dried in a Siemens IQ300 dryer until dry. To measure artificial light stability, fabrics were placed under an LED lamp at room temperature for 16 h. To measure UV light stability, fabrics were placed under a UV lamp at room temperature for 1 h.

[2] = Acidic pH stability of dyed fabrics (colour fastness, ΔE); assay type: physicochemical; conditions: pH 5 with HCl
Procedure: as §1

[3] = UV absorption capability (absorbance maxima, UV-A, UV-B, UV-C absorption) by HPLC; assay type: physicochemical
Procedure: The software Agilent Openlab CDS Chemstation Rev.
Violacein is reported as being a potent UV absorbent able to effectively absorb UV radiation, however, much less is known about the other violacein derivatives. To investigate the potential of using violacein and violacein derivatives as UV inhibitors and to potentially impart UV protection to fabrics, the UV absorption spectra of each compound was analyzed by HPLC and the total absorption capability at each of the most relevant UV wavelengths quantified.
For the quantification of UV absorption capacity of the compound of interest, a chromatographic separation on the F5 column and a gradient of water/acetonitrile containing 0.05% formic acid was run according to Example 5). […] The compounds were quantified based on the signal at 230 nm, using calibration curves of authentic analytical standards.
The UV absorption capacity is represented in mAU.min/mM. UV-A, UV-B and UV-C represent the most relevant regions where UV protection is required. UV-C is the most harmful type of UV radiation and can be generated by inorganic sources. UV-B radiation predominantly comes from the suns rays and is responsible for sun burn. UV-A radiation is also derived predominantly from the suns rays, and while UV-A radiation is less harmful than UV-B or UV-C but is much more prevalent.

E. coli DH5a = assay: Antimicrobial activity of dyed Nylon 6,6 fabric: final OD600 and % inhibition; assay type: cell-based
Procedure: (§2) Violacein is reported as being a potent antibiotic, capable of inhibiting the growth of a wide range of microbial kingdoms including bacteria, yeast, fungi, viruses, protozoa and nematode. […] To test this, overnight cultures of wild-type E. coli DH5a and S. cerevisiae S228c strains were diluted in 5 mL of cultivation media (LB for E. coli, minimal media for S. cerevisiae) to a starting OD600 of 0.1. 1.5×1.5 cm dyed Nylon 6,6 fabric strips were sterilized by submerging in 75% ethanol for 15 mins and air drying in a laminar air flow hood before adding to each culture (with undyed Nylon 6,6 fabric as a negative control). […] This experiment provides evidence that all violacein derivatives display antimicrobial properties.

S. cerevisiae S228c = assay: as above; assay type: cell-based
Procedure: as §2

[4] = Acrylic, before and after the stability test
[5] = Bleached cotton, before and after the stability test
[6] = Diacetate, before and after the stability test
[7] = Nylon 6,6, before and after the stability test
[8] = Polyester, before and after the stability test
[9] = Wool, before and after the stability test

SMILES: O=C1N=C(c2c[nH]c3ccc(O)cc23)C=C1c1c[nH]c2ccccc12 [proviolacein]
- L ([1]; Acrylic, After test): 58.76
- a ([1]; Acrylic, After test): −2.16
- b ([1]; Acrylic, After test): 3.85
- L ([1]; Acrylic, Before test): 57.87
- a ([1]; Acrylic, Before test): −0.46
- b ([1]; Acrylic, Before test): 1.91
- ΔE [1, 4]: 2.73
- L ([1]; Bleached cotton, After test): 64.37
- a ([1]; Bleached cotton, After test): 2.22
- b ([1]; Bleached cotton, After test): 2.08
- L ([1]; Bleached cotton, Before test): 63.78
- a ([1]; Bleached cotton, Before test): 2.31
- b ([1]; Bleached cotton, Before test): 1.4
- ΔE [1, 5]: 0.90
- L ([1]; Diacetate, After test): 61.54
- a ([1]; Diacetate, After test): 3.25
- b ([1]; Diacetate, After test): 6.78
- L ([1]; Diacetate, Before test): 60.55
- a ([1]; Diacetate, Before test): 3.12
- b ([1]; Diacetate, Before test): 6.29
- ΔE [1, 6]: 1.11
- L ([1]; Nylon 6,6, After test): 50.89
- a ([1]; Nylon 6,6, After test): −1.8
- b ([1]; Nylon 6,6, After test): −3.04
- L ([1]; Nylon 6,6, Before test): 52.98
- a ([1]; Nylon 6,6, Before test): −2.5
- b ([1]; Nylon 6,6, Before test): −3.65
- ΔE [1, 7]: 2.29
- L ([1]; Polyester, After test): 64.69
- a ([1]; Polyester, After test): −1.03
- b ([1]; Polyester, After test): −0.34
- L ([1]; Polyester, Before test): 64.55
- a ([1]; Polyester, Before test): −2.15
- b ([1]; Polyester, Before test): 1.47
- ΔE [1, 8]: 2.13
- L ([1]; Wool, After test): 65.28
- a ([1]; Wool, After test): −1.97
- b ([1]; Wool, After test): 5.42
- L ([1]; Wool, Before test): 65.56
- a ([1]; Wool, Before test): −2.33
- b ([1]; Wool, Before test): 7.35
- ΔE [1, 9]: 1.98
- L ([2]; Acrylic, After test): 58.2
- a ([2]; Acrylic, After test): −1.53
- b ([2]; Acrylic, After test): 3.12
- L ([2]; Acrylic, Before test): 59.15
- a ([2]; Acrylic, Before test): −0.61
- b ([2]; Acrylic, Before test): 1.45
- ΔE [2, 4]: 2.13
- L ([2]; Bleached cotton, After test): 65.48
- a ([2]; Bleached cotton, After test): 1.87
- b ([2]; Bleached cotton, After test): 2.2
- L ([2]; Bleached cotton, Before test): 62.48
- a ([2]; Bleached cotton, Before test): 1.73
- b ([2]; Bleached cotton, Before test): 2.27
- ΔE [2, 5]: 3.00
- L ([2]; Diacetate, After test): 59.6
- a ([2]; Diacetate, After test): 4.35
- b ([2]; Diacetate, After test): 7.87
- L ([2]; Diacetate, Before test): 60.94
- a ([2]; Diacetate, Before test): 4.79
- b ([2]; Diacetate, Before test): 4.9
- ΔE [2, 6]: 3.29
- L ([2]; Nylon 6,6, After test): 52.72
- a ([2]; Nylon 6,6, After test): −1.67
- b ([2]; Nylon 6,6, After test): −3.52
- L ([2]; Nylon 6,6, Before test): 50.84
- a ([2]; Nylon 6,6, Before test): 0.04
- b ([2]; Nylon 6,6, Before test): −4.68
- ΔE [2, 7]: 2.79
- L ([2]; Polyester, After test): 64.14
- a ([2]; Polyester, After test): −1.28
- b ([2]; Polyester, After test): 2.92
- L ([2]; Polyester, Before test): 64.55
- a ([2]; Polyester, Before test): −1.43
- b ([2]; Polyester, Before test): 1.3
- ΔE [2, 8]: 1.68
- L ([2]; Wool, After test): 66.56
- a ([2]; Wool, After test): −0.93
- b ([2]; Wool, After test): 5.56
- L ([2]; Wool, Before test): 65.49
- a ([2]; Wool, Before test): −1.55
- b ([2]; Wool, Before test): 5.81
- ΔE [2, 9]: 1.26
- UV absorption capability in the UV-B region ([3]; 305 nm): particularly high
- Total UV absorption UV C (245 nm) ([3]; AUC of HPLC peak at 245 nm per mM): 3142.9 (mAU · min)/mM
- Total UV absorption UV B (305 nm) ([3]; AUC of HPLC peak at 305 nm per mM): 4097.7 (mAU · min)/mM
- Total UV absorption UV A (360 nm) ([3]; AUC of HPLC peak at 360 nm per mM): 0 (mAU · min)/mM
- Final OD600 (E. coli DH5a; E. coli cultured overnight at 30° c. with dyed Nylon 6,6 fabric strip, starting OD600 0.1): 4.52
- % Inhibition (E. coli DH5a; E. coli, dyed Nylon 6,6 fabric vs undyed fabric control): 13.33%
- Final OD600 (S. cerevisiae S228c; S. cerevisiae cultured overnight at 30° c. with dyed Nylon 6,6 fabric strip, starting OD600 0.1): 4.39
- % Inhibition (S. cerevisiae S228c; S. cerevisiae, dyed Nylon 6,6 fabric vs undyed fabric control): 18.13%
- growth inhibition of S. cerevisiae (S. cerevisiae S228c; dyed Nylon 6,6 fabric strip in culture, overnight 30° c., OD600 versus undyed fabric): most inhibited
